Experimental data from patent publication US9428542B2, “Lupane triterpenoid derivatives and pharmaceutical use thereof” (priority 2012, dated 2016).
Like-named read-outs stand apart in the source and are kept apart here.

What was measured:
MT-2 cells = experiment: Compounds' cytotoxicity assay in MT-2 cells (CellTiter-Glo); type: cell-based; set-up: unit not given here; conditions: toxicity in MT-2 cells, 3 days
Protocol: 3. Method for Compounds' Cytotoxicity Assay:
The MT-2 cells are diluted to a needed concentration. 90 μl of the MT-2 cells suspension was added into 384-well plates containing 10 μl of the tested compounds. Compounds were dissolved in DMSO and tested as 11 points 3-fold serial dilutions. After addition of cells to compound plates, plates were placed to humidified 5% CO2 37 incubator for 3 days. The Luciferase activity was measured by CellTiter-Glo® Luminescent Cell Viability Assay kit (Promega Corp., WI, USA).
(§1) TC50 is referred to the toxicity in MT-2 cells by the compounds tested at 50% concentration; IC50 is referred to the inhibiting HIV-1IIIB replication in MT-2 cells by the compounds tested at 50% concentration; Therapeutic Index (TI)=TC50/IC50.

HIV-1IIIB = experiment: HIV-1 full replication assay (HIV-1IIIB-infected MT-2 cells, supernatant read out on TZM-bl cells, β-Gal); type: cell-based
Protocol: The antiviral activity of the compounds of the present invention was determined in a HIV-1 full replication assay.
In this assay, MT-2 cells that are infected with HIV-1IIIB were co-cultured with different concentration of the tested compounds for 3 days and then supernatant is transferred into new 384-well plates containing TZM-bl cells (also called JC53-bl). TZM-bl cells that could be infected by various kinds of HIV-1 strains stably express a great amount of HIV-1 receptor, co-receptor CD4 molecular, and co-receptor CXCR4 and CCR5. TZM-bl cells harbor LTR-luciferase and β-gal two report genes. The expression of luciferase and β-gal reporter directed by HIV-1 LTR can be activated by Tat protein generated after HIV infection, and the quantity of expression is proportional to the quantity of HIV-1. Compounds that interfere with virus replication in MT-2 cells, maturation of the virus, or post-entry steps in the HIV lifecycle decrease the luciferase signal or β-gal signal. In this experiment, BVM (Bevirimat, PA-457) is used as a positive control drug.
Method for Inhibiting HIV-1 Replication Assay:
The MT-2 cells are infected at a Multiciplicity (MOI) of 0.01 TCID50, and then the MT-2 cells suspension was diluted to a needed concentration. 90 μl of the MT-2 cells suspension from above was added into 384-well plates containing 10 μl of the tested compounds.
Compounds were dissolved in DMSO and tested as 11 points 3-fold serial dilutions. After addition of cells to compound plates, plates were placed to humidified 5% CO2 37 incubator for 3 days. 10 μl of cells culture supernatant from the incubated plates was transferred into new black 384-well plates.
Adjusted the TZMb1 cells concentration and 40 μl of TZMb1 cells was added into each well in the black 384-well plates. After addition of the TZMb1 cells to the black plates, black plates were placed to humidified 5% CO2 37 incubator for 24 h, then β-Gal activity was measured.
The anti viral activity %=(measured number-lowest mean number)/(highest mean number-lowest mean number)×100. The IC50 values were calculated by Median Equation and the IC curve was generated by Graphpad Prism V 5.03.
as §1

[1] = Human immunodeficiency virus 1, MT2, 72 h, inhibiting HIV-1IIIB replication in MT-2 cells, 3 days, read-out: IC50 (PM)
[2] = Human immunodeficiency virus 1, MT2, HIV replication in MT-2 cell (HIV-1IIIB) assay, read-out: IC50

SMILES | TC50 (PM) (MT-2 cells) | IC50 (HIV-1IIIB; [1]) [nM] | IC50 (HIV-1IIIB; Human immunodeficiency virus 1, MT2, 72 h, read-out: IC50 (PM)) [nM] | IC50 (HIV-1IIIB; [2]) [nM]
CC(C)C1=C2[C@H]3CC[C@@H]4[C@@]5(C)CC[C@H](OC(=O)CC(C)(C)C(=O)O)C(C)(C)[C@@H]5CC[C@@]4(C)[C@]3(C)CC[C@@]2(c2cc(=O)n(Cc3ccc(Cl)cc3)n2C)CC1=O [91′-1] | 22 |  |  | 
CC(C)C1=C2[C@H]3CC[C@@H]4[C@@]5(C)CC[C@H](OC(=O)CC(C)(C)C(=O)O)C(C)(C)[C@@H]5CC[C@@]4(C)[C@]3(C)CC[C@@]2(Cc2cc(=O)n(-c3ccc(Cl)cc3)n2C)CC1=O [98′-1] | 62 | ≤ 0.17 |  | 
CC(C)C1=C2[C@H]3CC[C@@H]4[C@@]5(C)CC[C@H](OC(=O)CC(C)(C)C(=O)O)C(C)(C)[C@@H]5CC[C@@]4(C)[C@]3(C)CC[C@@]2(Cc2cc(=O)n(-c3ccc(Cl)cn3)n2C)CC1=O [98′-2] | 56 | 0.37 |  | 
C=C(C)[C@@H]1CC[C@]2(C(=O)O)CC[C@]3(C)[C@H](CC[C@@H]4[C@@]5(C)CC[C@H](OC(=O)CC(C)(C)C(=O)O)C(C)(C)[C@@H]5CC[C@]43C)[C@@H]12 [BVM, Bevirimat, reference compound] |  |  | 5 | 
CC(C)C1=C2[C@H]3CC[C@@H]4[C@@]5(C)CC[C@H](OC(=O)CC(C)(C)C(=O)O)C(C)(C)[C@@H]5CC[C@@]4(C)[C@]3(C)CC[C@@]2(Cc2nnc(-c3ccc(Cl)cc3)o2)CC1=O [Compound 22-1] | 46 | 3.3 |  | 
CC(C)C1=C2[C@H]3CC[C@@H]4[C@@]5(C)CC[C@H](OC(=O)CC(C)(C)C(=O)O)C(C)(C)[C@@H]5CC[C@@]4(C)[C@]3(C)CC[C@@]2(Cc2nnc(-c3ccccc3)o2)CC1=O [Compound 22-2] | 28 | 1.7 |  | 
CC(C)C1=C2[C@H]3CC[C@@H]4[C@@]5(C)CC[C@H](OC(=O)CC(C)(C)C(=O)O)C(C)(C)[C@@H]5CC[C@@]4(C)[C@]3(C)CC[C@@]2(Cc2nnc(-c3ccc(Cl)cn3)o2)CC1=O [Compound 22-3] | 36 | 1.6 |  | 
CC(C)C1=C2[C@H]3CC[C@@H]4[C@@]5(C)CC[C@H](OC(=O)CC(C)(C)C(=O)O)C(C)(C)[C@@H]5CC[C@@]4(C)[C@]3(C)CC[C@@]2(Cc2nnc(-c3cccnc3)o2)CC1=O [Compound 22-9] | 33 | 4.3 |  | 
CC(C)C1=C2[C@H]3CC[C@@H]4[C@@]5(C)CC[C@H](OC(=O)CC(C)(C)C(=O)O)C(C)(C)[C@@H]5CC[C@@]4(C)[C@]3(C)CC[C@@]2(Cc2nnc(-c3ccc(C(F)(F)F)cn3)o2)CC1=O [Compound 22-12] | 31 | 0.4 |  | 
CC(C)C1=C2[C@H]3CC[C@@H]4[C@@]5(C)CC[C@H](OC(=O)CC(C)(C)C(=O)O)C(C)(C)[C@@H]5CC[C@@]4(C)[C@]3(C)CC[C@@]2(Cc2nnc(-c3ccc(Cl)cc3F)o2)CC1=O [Compound 22-13] | 35 | 1.7 |  | 
CC(C)C1=C2[C@H]3CC[C@@H]4[C@@]5(C)CC[C@H](OC(=O)CC(C)(C)C(=O)O)C(C)(C)[C@@H]5CC[C@@]4(C)[C@]3(C)CC[C@@]2(Cc2nnc(-c3ccc(Br)cn3)o2)CC1=O [Compound 22-14] | 200 | ≤ 0.17 |  | 
CC(C)C1=C2[C@H]3CC[C@@H]4[C@@]5(C)CC[C@H](OC(=O)CC(C)(C)C(=O)O)C(C)(C)[C@@H]5CC[C@@]4(C)[C@]3(C)CC[C@@]2(Cc2nnc(-c3ccc(C#N)cn3)o2)CC1=O [Compound 22-15] | 34 | 2.1 |  | 
CC(C)C1=C2[C@H]3CC[C@@H]4[C@@]5(C)CC[C@H](OC(=O)CC(C)(C)C(=O)O)C(C)(C)[C@@H]5CC[C@@]4(C)[C@]3(C)CC[C@@]2(Cc2nnc(-c3ncc(Cl)cn3)o2)CC1=O [Compound 22-16] | 39 | 0.48 |  | 
COc1ccc(-c2nnc(C[C@@]34CC[C@]5(C)[C@H](CC[C@@H]6[C@@]7(C)CC[C@H](OC(=O)CC(C)(C)C(=O)O)C(C)(C)[C@@H]7CC[C@]65C)C3=C(C(C)C)C(=O)C4)o2)nc1 [Compound 22-17] | 200 | 2.8 |  | 
CC(C)C1=C2[C@H]3CC[C@@H]4[C@@]5(C)CC[C@H](OC(=O)CC(C)(C)C(=O)O)C(C)(C)[C@@H]5CC[C@@]4(C)[C@]3(C)CC[C@@]2(Cc2nnc(-c3ccc(F)cn3)o2)CC1=O [Compound 22-18] | 48 | 1.7 |  | 
CC(C)C1=C2[C@H]3CC[C@@H]4[C@@]5(C)CC[C@H](OC(=O)CC(C)(C)C(=O)O)C(C)(C)[C@@H]5CC[C@@]4(C)[C@]3(C)CC[C@@]2(c2nnc(-c3ccc(Cl)cc3)o2)CC1=O [Compound 27-1] | 50 | 3.3 |  | 
CC(C)C1=C2[C@H]3CC[C@@H]4[C@@]5(C)CC[C@H](OC(=O)CC(C)(C)C(=O)O)C(C)(C)[C@@H]5CC[C@@]4(C)[C@]3(C)CC[C@@]2(c2nnc(-c3ccccc3)o2)CC1=O [Compound 27-2] | 100 | 2 |  | 
CC(C)C1=C2[C@H]3CC[C@@H]4[C@@]5(C)CC[C@H](OC(=O)CC(C)(C)C(=O)O)C(C)(C)[C@@H]5CC[C@@]4(C)[C@]3(C)CC[C@@]2(c2nnc(-c3ccc(Cl)cn3)o2)CC1=O [Compound 27-3] | 36 | 1.5 |  | 
CC(C)C1=C2[C@H]3CC[C@@H]4[C@@]5(C)CC[C@H](OC(=O)CC(C)(C)C(=O)O)C(C)(C)[C@@H]5CC[C@@]4(C)[C@]3(C)CC[C@@]2(c2cc(=O)n(CCN(C)C)n2C)CC1 [Compound 89-3] |  |  |  | < 5
CC(C)C1=C2[C@H]3CC[C@@H]4[C@@]5(C)CC[C@H](OC(=O)CC(C)(C)C(=O)O)C(C)(C)[C@@H]5CC[C@@]4(C)[C@]3(C)CC[C@@]2(c2cc(=O)n(Cc3ccc(Cl)cc3)n2C)CC1=O [Compound 91-1] | 41 |  |  | 
CC(C)C1=C2[C@H]3CC[C@@H]4[C@@]5(C)CC[C@H](OC(=O)CC(C)(C)C(=O)O)C(C)(C)[C@@H]5CC[C@@]4(C)[C@]3(C)CC[C@@]2(c2cc(=O)n(CCN(C)C)n2C)CC1=O [Compound 91-4] |  |  |  | < 2
CC(C)C1=C2[C@H]3CC[C@@H]4[C@@]5(C)CC[C@H](OC(=O)CC(C)(C)C(=O)O)C(C)(C)[C@@H]5CC[C@@]4(C)[C@]3(C)CC[C@@]2(c2c(Cl)c(=O)n(-c3ccc(Cl)cc3)n2C)CC1=O [Compound 98-8] |  |  |  | < 2
CC(C)C1=C2[C@H]3CC[C@@H]4[C@@]5(C)CC[C@H](OC(=O)CC(C)(C)C(=O)O)C(C)(C)[C@@H]5CC[C@@]4(C)[C@]3(C)CC[C@@]2(c2c(Cl)c(=O)n(-c3ccc(Cl)cc3)n2CCN)CC1=O [Compound 155-2] |  |  |  | < 2
CC(C)C1=C2[C@H]3CC[C@@H]4[C@@]5(C)CC[C@H](OC(=O)CC(C)(C)C(=O)O)C(C)(C)[C@@H]5CC[C@@]4(C)[C@]3(C)CC[C@@]2(c2c(Cl)c(=O)n(-c3ccc(Cl)cc3)n2CCN(C)C)CC1=O [Compound 156-2] |  |  |  | < 2
CC(C)C1=C2[C@H]3CC[C@@H]4[C@@]5(C)CC[C@H](OC(=O)CC(C)(C)C(=O)O)C(C)(C)[C@@H]5CC[C@@]4(C)[C@]3(C)CC[C@@]2([C@@H](O)c2nnc(-c3ccc(Cl)cc3)n2CCN)CC1=O [Compound 164-1] |  |  |  | < 2
CC(C)C1=C2[C@H]3CC[C@@H]4[C@@]5(C)CC[C@H](OC(=O)CC(C)(C)C(=O)O)C(C)(C)[C@@H]5CC[C@@]4(C)[C@]3(C)CC[C@@]2([C@@H](O)c2nnc(-c3ccc(Cl)cc3)n2CCN(C)C)CC1=O [Compound 165-1] |  |  |  | < 2
